Consider 23 molecules from PubChem BioAssay AID330 (DTP/NCI, 2004).

The assay relates to P388 leukemia ip, CD2F1 mice, survival T/C. The experiment in a line: NCI In Vivo Anticancer Drug Screen. Data for tumor model P388 Leukemia (intraperitoneal) in CD2F1 (CDF1) mice. To be noted: endpoint: median survival time, higher = longer survival. A digest of the protocol:
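Mice carrying the transplanted tumor received test compound or vehicle. Survival was recorded in each group, and the value is the treated-group measurement divided by that of the vehicle-treated control group.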

The mark [1] stands for this setting: dose: 50.0 mg/kg/injection, schedule: Q01DX009 (ip), vehicle: Klucel (hydroxypropylcellulose) (HPC).
The mark [2] stands for this setting: dose: 50.0 mg/kg/injection, schedule: Q04DX003 (ip), vehicle: saline with Tween-80.
Where [3] appears, read: dose: 60.0 mg/kg/injection, schedule: Q01DX005 (ip), vehicle: saline with Tween-80.
The mark [4] stands for this setting: dose: 120.0 mg/kg/injection, schedule: Q01DX005 (ip), vehicle: saline with Tween-80.
[5] abbreviates: dose: 50.0 mg/kg/injection, schedule: Q01DX005 (ip), vehicle: Klucel (hydroxypropylcellulose) (HPC).
[6] abbreviates: dose: 100.0 mg/kg/injection, schedule: Q01DX005 (ip), vehicle: Klucel (hydroxypropylcellulose) (HPC).
[7] abbreviates: dose: 100.0 mg/kg/injection, schedule: Q04DX003 (ip), vehicle: saline with Tween-80.
Setting [8] is: dose: 200.0 mg/kg/injection, schedule: Q04DX003 (ip), vehicle: saline with Tween-80.
[9] abbreviates: dose: 12.5 mg/kg/injection, schedule: Q01DX005 (ip), vehicle: saline with Tween-80.
The mark [10] stands for this setting: dose: 25.0 mg/kg/injection, schedule: Q01DX005 (ip), vehicle: saline with Tween-80.
Setting [11] is: dose: 50.0 mg/kg/injection, schedule: Q01DX005 (ip), vehicle: saline with Tween-80.
[12] abbreviates: dose: 50.0 mg/kg/injection, schedule: Q01DX009 (ip), vehicle: saline with Tween-80.
Where [13] appears, read: dose: 100.0 mg/kg/injection, schedule: Q01DX009 (ip), vehicle: saline with Tween-80.
Where [14] appears, read: dose: 200.0 mg/kg/injection, schedule: Q01DX009 (ip), vehicle: saline with Tween-80.

Structures are written as SMILES. “And” between values parts separate entries of the source, which are not always exact repeats. Equal values may be shown once. Toxic doses and inconclusive results are not listed.

For the molecule `CCOC(=O)C(Cc1ccc(N(CCCl)CCCl)cc1)NC(=O)C(N)CCC(=O)O` (stereo not given), the T/C is 166 % of control (dose: 5.0 mg/kg/injection, schedule: Q04DX003 (ip), vehicle: water); 169 % of control (dose: 6.25 mg/kg/injection, schedule: Q01DX009 (ip), vehicle: Klucel (hydroxypropylcellulose) (HPC)); 161 % of control and 196 % of control (dose: 10.0 mg/kg/injection, schedule: Q04DX003 (ip), vehicle: water); 202 % of control and 247 % of control (dose: 12.5 mg/kg/injection, schedule: Q01DX009 (ip), vehicle: Klucel (hydroxypropylcellulose) (HPC)); 233 % of control and 321 % of control (dose: 20.0 mg/kg/injection, schedule: Q04DX003 (ip), vehicle: water); 196 % of control (dose: 25.0 mg/kg/injection, schedule: Q01DX009 (ip), vehicle: Klucel (hydroxypropylcellulose) (HPC)). Further, the T/C (dose: 40.0 mg/kg/injection, schedule: Q04DX003 (ip), vehicle: water) is 122 % of control and 348 % of control; the T/C under setting [1] was 92 % of control.
In the case of `CN1CCN=C1c1ccc(NC(=O)c2ccc(C(=O)Nc3ccc(C4=NCCN4C)cc3)c(Cl)c2)cc1`, the T/C was 104 % of control (dose: 1.56 mg/kg/injection, schedule: Q01DX005 (ip), vehicle: Klucel (hydroxypropylcellulose) (HPC)); 109 % of control (dose: 3.12 mg/kg/injection, schedule: Q01DX005 (ip), vehicle: Klucel (hydroxypropylcellulose) (HPC)); 118 % of control and 123 % of control (dose: 6.25 mg/kg/injection, schedule: Q01DX005 (ip), vehicle: Klucel (hydroxypropylcellulose) (HPC)).
`CCCCn1cnc2c(=S)nc(N)[nH]c21`: the T/C runs as follows: (dose: 25.0 mg/kg/injection, schedule: Q04DX003 (ip), vehicle: saline with Tween-80) 109 % of control; under setting [2], 118 % of control; (dose: 400.0 mg/kg/injection, schedule: Q04DX003 (ip), vehicle: saline with Tween-80) 90 % of control.
As for `Cc1ccc(S(=O)(=O)NNC(=O)c2nc3ccccc3c(=O)[nH]2)cc1`, the T/C runs as follows: under setting [3], 100 % of control; under setting [4], 92 % of control.
Regarding `CCOC(=O)C1C(CCC#N)C(=O)CCC1(C#N)c1ccccc1` (stereo not given), the T/C was 105 % of control (dose: 100.0 mg/kg/injection, schedule: Q01DX001 (ip), vehicle: saline); 100 % of control (dose: 200.0 mg/kg/injection, schedule: Q01DX001 (ip), vehicle: saline); 105 % of control (dose: 400.0 mg/kg/injection, schedule: Q01DX001 (ip), vehicle: saline).
In the case of `Cc1ccc2c(c1)C(C)(C)C(O)CC2(C)C` (stereo not given), the T/C reads like this: under setting [5], 98 % of control; under setting [6], 106 % of control; (dose: 200.0 mg/kg/injection, schedule: Q01DX005 (ip), vehicle: Klucel (hydroxypropylcellulose) (HPC)) 109 % of control.
Regarding `CN1C(=O)N(C)C2(C(=O)c3cccc4cccc2c34)C1=O` (stereo not given), the T/C was 100 % of control (dose: 50.0 mg/kg/injection, schedule: Q01DX009 (ip), vehicle: distilled water + alcohol); 94 % of control (dose: 100.0 mg/kg/injection, schedule: Q01DX009 (ip), vehicle: distilled water + alcohol); 100 % of control (dose: 200.0 mg/kg/injection, schedule: Q01DX009 (ip), vehicle: distilled water + alcohol).
As for `O=S(=O)(O)OOS(=O)(=O)O`, the T/C was 100 % of control under setting [1] and 87 % of control (dose: 100.0 mg/kg/injection, schedule: Q01DX009 (ip), vehicle: Klucel (hydroxypropylcellulose) (HPC)).
For `S=c1[nH]nc(-c2ccccc2)n1C1CCCCC1`, the T/C reads like this: under setting [2], 97 % of control; under setting [7], 100 % of control; under setting [8], 93 % of control.
Take `C[As](C)SCCO`: the T/C was 110 % of control under setting [9]; 115 % of control under setting [10]; 117 % of control under setting [11]; 109 % of control (dose: 50.0 mg/kg/injection, schedule: Q04DX002 (ip), vehicle: saline with Tween-80).
On to `CN(C(=O)C(=S)c1ccccc1)c1ccccc1`, for which the T/C is 104 % of control (dose: 100.0 mg/kg/injection, schedule: Q04DX002 (ip), vehicle: saline); 119 % of control (dose: 200.0 mg/kg/injection, schedule: Q04DX002 (ip), vehicle: saline); 117 % of control (dose: 400.0 mg/kg/injection, schedule: Q04DX002 (ip), vehicle: saline).
For `C[N+]1(C)CCC2=CC(=O)CC(c3ccccc3)C2C1` (stereo not given), the T/C runs as follows: under setting [11], 100 % of control; (dose: 100.0 mg/kg/injection, schedule: Q01DX005 (ip), vehicle: saline with Tween-80) 98 % of control; (dose: 200.0 mg/kg/injection, schedule: Q01DX005 (ip), vehicle: saline with Tween-80) 103 % of control.
`COc1c2occc2c(NC(=O)C(Cl)(Cl)Cl)c2ccc(=O)oc12`: the T/C by setting is: (dose: 5.0 mg/kg/injection, schedule: Q04DX002 (ip), vehicle: saline with Tween-80) 102 % of control; (dose: 10.0 mg/kg/injection, schedule: Q04DX002 (ip), vehicle: saline with Tween-80) 101 % of control; (dose: 20.0 mg/kg/injection, schedule: Q04DX002 (ip), vehicle: saline with Tween-80) 102 % of control.
As to `Cc1ccc(C(=O)Cc2nc(C#N)c(C#N)nc2CC(=O)c2ccc(C)cc2)cc1`, the T/C by setting is: under setting [3], 112 % of control; under setting [4], 120 % of control.
`CC1=C(/C=C/C(C)=N/NC(N)=S)C(C)(C)CCC1`: the T/C is, setting by setting: (dose: 6.25 mg/kg/injection, schedule: Q01DX009 (ip), vehicle: saline with Tween-80) 100 % of control; (dose: 12.5 mg/kg/injection, schedule: Q01DX009 (ip), vehicle: saline with Tween-80) 115 % of control.
As for `O=C1CSC(=S)N1CCCN1CCOCC1`, the T/C reads like this: under setting [12], 104 % of control; under setting [13], 106 % of control; under setting [14], 101 % of control.
Consider `COc1cc2c(cc1CN(C)C)[nH]c1c3ccc(Cl)cc3ncc21`, for which the T/C reads like this: under setting [9], 104 % of control; under setting [10], 103 % of control; under setting [11], 109 % of control and 112 % of control.
For the molecule `CCOc1c(Cc2ccccc2)c(=O)nc2c(-c3ccccc3)cncn12`, the T/C was 101 % of control (dose: 30.0 mg/kg/injection, schedule: Q01DX005 (ip), vehicle: saline with Tween-80); 86 % of control and 90 % of control under setting [3]; 92 % of control under setting [4]; 87 % of control (dose: 240.0 mg/kg/injection, schedule: Q01DX005 (ip), vehicle: saline with Tween-80).
For the molecule `CCOC(=O)C(Cc1ccc(N(CCCl)CCCl)cc1)NC=O` (stereo not given), the T/C is, setting by setting: (dose: 6.25 mg/kg/injection, schedule: Q04DX003 (ip), vehicle: saline with Tween-80) 150 % of control; (dose: 12.5 mg/kg/injection, schedule: Q04DX003 (ip), vehicle: saline with Tween-80) 154 % of control; (dose: 25.0 mg/kg/injection, schedule: Q01DX009 (ip), vehicle: saline with Tween-80) 181 % of control; under setting [12], 209 % of control; under setting [2], 181 % of control; under setting [13], 100 % of control. Further, the T/C under setting [7] was 204 % of control and 216 % of control; the T/C under setting [8] was 91 % of control.
For `COc1ccc2c(c1)[C@@]13CCCCC1[C@@H](C2)N(CC1CC1)CC3` (stereo not given in full), the T/C (dose: 100.0 mg/kg/injection, schedule: Q01DX001 (ip), vehicle: Klucel (hydroxypropylcellulose) (HPC)) was 100 % of control and the T/C (dose: 200.0 mg/kg/injection, schedule: Q01DX001 (ip), vehicle: Klucel (hydroxypropylcellulose) (HPC)) was 100 % of control.
For the molecule `COc1cc(CCN)ccc1OCc1ccccc1`, the T/C by setting is: (dose: 25.0 mg/kg/injection, schedule: Q01DX009 (ip), vehicle: saline) 107 % of control; (dose: 50.0 mg/kg/injection, schedule: Q01DX009 (ip), vehicle: saline) 104 % of control; (dose: 100.0 mg/kg/injection, schedule: Q01DX009 (ip), vehicle: saline) 110 % of control.
On to `Cc1ccc(S(=O)(=O)NN=c2c3ccccc3c3nc4ccccc4nc3c3ccccc23)cc1`, for which the T/C under setting [5] is 90 % of control and the T/C under setting [6] was 98 % of control.
Regarding `CN(C)CCOc1ccccc1Cc1ccccc1`, the T/C under setting [12] was 95 % of control, the T/C under setting [13] is 100 % of control and the T/C under setting [14] was 118 % of control.
